“And” between values parts separate entries of the source, which are not always exact repeats. Identical values can stand only once.
Columns and labels:
CBP = CBP (Homo sapiens, UniProt Q92793); test: Acetyltransferase activity of CBP (H3K27ac immunoblot, HEK293 cells); type: cell-based; details: for relative H3K27ac level: Fig 3d replicates, HA-CBP +, TSA-0.5uM +
Description: Fig. 3 APC inhibits CRTC2 interacting with CREB-ZIP and reduces acetyltransferase activity of CBP by binding with CREB protein directly. a Isothermal titration calorimetry (ITC) of HIS-CREB protein solution titrated into APC solution. The bottom solid line represents a nonlinear least-squares fitted by a single-site binding model. One of two independent experiments is shown here. b IC50 of APC inhibitory activity detected by CREB–CRTC2 two-hybrid assay in HEK293T cells (n = 3 per treatment, data are represented as mean ± SEM). One of three independent experiments is shown here. c Immunoprecipitation analysis of FLAG-CRTC2-WT recovered by anti-MYC antibody from HEK293 cells co-transfected with plasmids for a Myc-Creb-Zip fragment and the FLAG-Crtc2-Wt, stimulated by FSK (10 nM) for 2-h before harvest. APC (1–10 μM) was included in immunoprecipitation mixtures as indicated. Top represents one of three independent experiments, and the relative gray density of FLAG normalized to MYC in MYC-IP- factions is shown as a bar graph (bottom, n = 3). Data are represented as mean ± SEM; P values were determined by one-way ANOVA followed Dunnett’s multiple comparisons test. d Immunoblotting analysis of the acetyltransferase activity of CBP. The protein levels of H3K27ac and total Histone H3 were determined using specific antibodies from HEK293 cell lysate overexpressing HA-Cbp plasmid. […] The top represents one of three independent experiments, and the relative gray density of H3K27ac normalized to total Histone H3 in cell lysate is shown as a bar graph (bottom, n = 3). Data are represented as mean ± SEM; P values were determined by one-way ANOVA followed Dunnett’s multiple comparisons test. ns, P > 0.05; *P < 0.05; **P < 0.01. Sources data for this figure are provided as source data file.

[1] = Cholesterol, TG, NEFA and glycerol in serum and liver; type: in vivo, mouse; parameters: liver NEFA, Mean 2 (group mean) / Plasma VLDL cholesterol in db/db mice (VLDL-C) / Plasma VLDL cholesterol in db/db mice, group mean / TC in liver_CT2KO (total cholesterol in the liver of CRTC2-KO) / TC in liver_WT (total cholesterol in the liver) / TC in liver_WT, mean / TC in liver_WT, Mean Diff. VEH vs. drug / TC in liver_CRTC2KO, mean / TC in liver_CRTC2KO, Mean Diff. VEH vs. drug: unit not given here; details: for plasma NEFA, Mean 2 (group mean): vs 0mg/kg mean 1.02; for liver glycerol/protein: Figure 5i; for hepatic NEFA / liver NEFA, Mean 2 (group mean): Figure 5h; for liver NEFA, Mean 2 (group mean): vs 0mg/kg mean 165.9; for Plasma total cholesterol, Mean 1 (drug group): N 6; for HF, plasma TG / HF, plasma TG, group mean / HF, plasma TG (Fast, TG): HF mice; for HF, plasma TG, group mean: n=6; for HF, plasma TG (Fast, TG): fasted
Protocol: Serum total cholesterol (TC), LDL cholesterol (LDL-C), and HDL cholesterol (HDL-C) levels were detected using commercial kits (Beihua, China), and serum VLDL protein was determined by ELISA (Jiancheng, China).
The plasma TG and NEFA levels were determined using corresponding kits from Beihua (China) and WAKO (Japan), respectively. The TG levels of liver and WAT were tested by TG kit (Applygene, China). The NEFA in the liver and WAT were extracted by chloroform–methanol and then subjected to NEFA assay (WAKO).

[2] = APC 10 mg/kg, individual animals
[3] = APC 20 mg/kg, individual animals
[4] = APC-10mg/kg, individual mice, 10 mg/kg
[5] = APC-20mg/kg, individual mice, 20 mg/kg
[6] = HF mice plasma, APC 10 mg/kg, N=5
[7] = HF mice plasma, APC 10 mg/kg, individual animals
[8] = HF mice plasma, APC 20 mg/kg, N=5
[9] = HF mice plasma, APC 20 mg/kg, individual animals
[10] = db/db mice, plasma, individual animals

CBP, sequence (Q92793 whole entry): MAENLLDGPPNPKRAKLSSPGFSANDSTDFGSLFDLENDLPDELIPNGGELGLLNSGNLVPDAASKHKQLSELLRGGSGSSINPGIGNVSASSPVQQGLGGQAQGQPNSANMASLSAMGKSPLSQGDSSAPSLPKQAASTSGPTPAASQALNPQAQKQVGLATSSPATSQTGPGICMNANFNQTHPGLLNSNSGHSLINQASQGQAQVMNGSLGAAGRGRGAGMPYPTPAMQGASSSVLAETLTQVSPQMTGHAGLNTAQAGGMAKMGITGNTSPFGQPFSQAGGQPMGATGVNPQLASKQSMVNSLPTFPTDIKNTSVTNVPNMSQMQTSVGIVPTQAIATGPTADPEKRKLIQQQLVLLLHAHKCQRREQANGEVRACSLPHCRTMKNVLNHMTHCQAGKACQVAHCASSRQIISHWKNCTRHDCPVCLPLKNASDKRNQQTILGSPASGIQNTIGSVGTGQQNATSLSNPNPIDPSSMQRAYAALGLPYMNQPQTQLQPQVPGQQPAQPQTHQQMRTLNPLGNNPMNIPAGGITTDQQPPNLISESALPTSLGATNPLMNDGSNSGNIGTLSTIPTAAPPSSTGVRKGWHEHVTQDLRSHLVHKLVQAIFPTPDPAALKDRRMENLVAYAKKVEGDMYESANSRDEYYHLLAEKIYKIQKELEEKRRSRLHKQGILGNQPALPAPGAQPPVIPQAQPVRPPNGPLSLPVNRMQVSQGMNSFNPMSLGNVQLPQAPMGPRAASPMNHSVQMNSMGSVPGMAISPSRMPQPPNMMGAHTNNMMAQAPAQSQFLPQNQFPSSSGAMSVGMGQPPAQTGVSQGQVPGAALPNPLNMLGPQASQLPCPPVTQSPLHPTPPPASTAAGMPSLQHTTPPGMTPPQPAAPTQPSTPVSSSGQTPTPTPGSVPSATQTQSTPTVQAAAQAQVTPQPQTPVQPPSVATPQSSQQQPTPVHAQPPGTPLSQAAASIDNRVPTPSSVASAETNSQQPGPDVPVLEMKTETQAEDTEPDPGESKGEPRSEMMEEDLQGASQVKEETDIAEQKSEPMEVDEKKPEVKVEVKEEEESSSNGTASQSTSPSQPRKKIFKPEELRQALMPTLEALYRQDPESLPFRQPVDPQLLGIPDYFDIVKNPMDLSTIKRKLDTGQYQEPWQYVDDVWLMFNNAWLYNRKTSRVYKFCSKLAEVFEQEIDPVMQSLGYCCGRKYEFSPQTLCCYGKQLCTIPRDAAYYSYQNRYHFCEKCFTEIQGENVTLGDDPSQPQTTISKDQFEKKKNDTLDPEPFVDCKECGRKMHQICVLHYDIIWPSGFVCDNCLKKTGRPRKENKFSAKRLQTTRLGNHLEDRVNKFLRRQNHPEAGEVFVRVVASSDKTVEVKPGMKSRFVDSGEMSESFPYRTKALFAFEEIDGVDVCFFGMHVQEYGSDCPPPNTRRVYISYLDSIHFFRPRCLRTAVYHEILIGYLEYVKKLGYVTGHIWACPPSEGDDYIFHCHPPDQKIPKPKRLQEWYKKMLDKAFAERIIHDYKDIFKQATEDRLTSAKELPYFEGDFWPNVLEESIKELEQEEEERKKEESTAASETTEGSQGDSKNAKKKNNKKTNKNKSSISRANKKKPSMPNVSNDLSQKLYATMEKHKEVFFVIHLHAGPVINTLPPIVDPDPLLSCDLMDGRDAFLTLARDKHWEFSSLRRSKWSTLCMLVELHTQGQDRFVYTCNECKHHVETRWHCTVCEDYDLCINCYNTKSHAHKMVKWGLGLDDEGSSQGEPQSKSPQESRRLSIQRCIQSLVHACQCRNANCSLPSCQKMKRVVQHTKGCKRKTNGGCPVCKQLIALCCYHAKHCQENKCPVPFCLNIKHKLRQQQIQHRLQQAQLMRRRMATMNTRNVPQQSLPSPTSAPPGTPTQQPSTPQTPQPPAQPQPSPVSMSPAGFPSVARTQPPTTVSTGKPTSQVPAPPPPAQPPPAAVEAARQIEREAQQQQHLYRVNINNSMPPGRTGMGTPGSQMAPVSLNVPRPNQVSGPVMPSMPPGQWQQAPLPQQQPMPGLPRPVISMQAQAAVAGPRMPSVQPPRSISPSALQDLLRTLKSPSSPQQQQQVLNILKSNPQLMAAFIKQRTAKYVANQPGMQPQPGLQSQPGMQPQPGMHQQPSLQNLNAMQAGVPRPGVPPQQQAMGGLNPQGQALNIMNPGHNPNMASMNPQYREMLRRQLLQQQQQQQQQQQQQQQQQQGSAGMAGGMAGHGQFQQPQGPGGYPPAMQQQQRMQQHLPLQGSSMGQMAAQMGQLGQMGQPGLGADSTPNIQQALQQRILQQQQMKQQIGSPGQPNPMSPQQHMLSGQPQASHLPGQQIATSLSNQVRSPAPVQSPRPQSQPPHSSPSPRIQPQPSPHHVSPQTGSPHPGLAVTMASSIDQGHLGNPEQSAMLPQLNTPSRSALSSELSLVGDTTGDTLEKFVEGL

CC(C)=CCc1cc(C=CC(=O)O)cc(CC=C(C)C)c1O [APC, 3,5-diprenyl-4-hydroxycinnamic acid]
relative H3K27ac level (CBP; APC 2 uM): 1.193 and 1.187 and 1.293
relative H3K27ac level (CBP; APC 5 uM): 0.5384 and 0.3648 and 0.6529
acetylation level of H3K27ac induced by CBP (CBP; HEK293 cells overexpressing HA-Cbp): dose-dependently reduced
liver TG normolized by protein [1, 2]: 86.3991 µM/mg and 171.894 µM/mg and 414.053 µM/mg and 275.641 µM/mg and 201.326 µM/mg
liver TG normolized by protein, group mean ([1]; APC 10 mg/kg, n=5): 229.9
plasma NEFA ([1]; APC 10 mg/kg, individual mice, Figure 5g): 1.19 mM (2×) and 1.033 mM and 1.294 mM and 1.373 mM
plasma NEFA, Mean 2 (group mean) ([1]; APC 10mg/kg, n=5, Figure 5g): 1.216
liver TG normolized by protein [1, 3]: 85.5962 µM/mg and 137.868 µM/mg and 107.422 µM/mg and 121.195 µM/mg and 111.821 µM/mg
plasma NEFA ([1]; APC 20 mg/kg, individual mice, Figure 5g): 1.765 mM and 1.686 mM and 1.451 mM and 1.242 mM and 1.507 mM
plasma NEFA, Mean 2 (group mean) ([1]; APC 20mg/kg, n=5, Figure 5g): 1.53
liver glycerol/protein [1, 4]: 49.7505 nM/mg and 67.3705 nM/mg and 57.1365 nM/mg and 57.0635 nM/mg and 49.612 nM/mg
hepatic NEFA [1, 4]: 39.07 mM/mg protein and 106.88 mM/mg protein and 150.80 mM/mg protein and 112.30 mM/mg protein and 101.67 mM/mg protein
liver NEFA, Mean 2 (group mean) ([1]; APC-10mg/kg, n=5): 102.1
liver glycerol/protein [1, 5]: 43.0466 nM/mg and 45.5622 nM/mg and 43.2605 nM/mg and 44.1634 nM/mg and 41.762 nM/mg
hepatic NEFA [1, 5]: 39.34 mM/mg protein and 26.14 mM/mg protein and 65.42 mM/mg protein and 29.72 mM/mg protein and 45.95 mM/mg protein
liver NEFA, Mean 2 (group mean) ([1]; APC-20mg/kg, n=5): 41.31
NEFA and glycerol levels in the liver ([1]; DIO mice): reduced
NEFA levels in the plasma ([1]; DIO mice): significantly enhanced
TG in serum and liver; TC, LDL-C, HDL-C, VLDL-C in serum ([1]; DIO mice, i.p. daily 5 weeks): reduced
Plasma total cholesterol, Mean Diff. vs. VEH ([1]; Figure 6h, CRTC2KO mice): 5.091 mg/dL
Plasma total cholesterol, Mean 1 (drug group) ([1]; Figure 6h, CRTC2KO mice, group mean): 223.9 mg/dL
TC in plasma_CRTC2KO (plasma total cholesterol) ([1]; Figure 6h, CRTC2KO mice, individual mice): 238.201 mg/dL and 210.746 mg/dL and 206.493 mg/dL and 224.280 mg/dL and 219.253 mg/dL and 244.388 mg/dL
Plasma total cholesterol, Mean Diff. vs. VEH ([1]; Figure 6h, WT mice): -70.45 mg/dL
Plasma total cholesterol, Mean 1 (drug group) ([1]; Figure 6h, WT mice, group mean): 208.1 mg/dL
TC in plasma_WT (plasma total cholesterol) ([1]; Figure 6h, WT mice, individual mice): 239.748 mg/dL and 207.149 mg/dL and 201.100 mg/dL and 213.669 mg/dL and 202.239 mg/dL and 184.451 mg/dL
Plasma HDLC, group mean [1, 6]: 108.7
Plasma LDLC, group mean [1, 6]: 35.65
Plasma TC, group mean [1, 6]: 159.1
Plasma cholesterol fraction: HDL-C [1, 7]: 121.556 mg/dL and 100.915 mg/dL and 96.3277 mg/dL and 114.676 mg/dL and 110.089 mg/dL
Plasma cholesterol fraction: TC [1, 7]: 183.52 mg/dL and 143.341 mg/dL and 133.376 mg/dL and 156.357 mg/dL and 178.886 mg/dL
Plasma cholesterol fraction: lDL-C [1, 7]: 34.819 mg/dL and 32.859 mg/dL and 26.6884 mg/dL and 35.653 mg/dL and 48.218 mg/dL
plasma VLDL-C in HF mice [1, 7]: 7.592 mM and 8.572 mM and 12.094 mM and 7.185 mM and 10.797 mM
Plasma LDLC, group mean [1, 8]: 35.83
Plasma TC, group mean [1, 8]: 149.8
Plasma cholesterol fraction: HDL-C [1, 9]: 115.823 mg/dl and 123.85 mg/dl and 106.649 mg/dl (2×) and 111.236 mg/dl
Plasma cholesterol fraction: TC [1, 9]: 171.677 mg/dL and 165.819 mg/dL and 163.116 mg/dL and 116.704 mg/dL and 131.574 mg/dL
Plasma cholesterol fraction: lDL-C [1, 9]: 30.997 mg/dL and 43.001 mg/dL and 39.18 mg/dL and 41.345 mg/dL and 24.6089 mg/dL
plasma VLDL-C in HF mice [1, 9]: 7.201 mM and 6.888 mM and 6.935 mM and 9.593 mM and 6.573 mM
HF, plasma TG [1, 2]: 206.957 mg/dL and 266.745 mg/dL and 324.233 mg/dL and 312.736 mg/dL and 213.856 mg/dL and 276.893 mg/dL
HF, plasma TG, group mean ([1]; APC 10 mg/kg): 266.9
HF, plasma TG [1, 3]: 191.58 mg/dL and 265.587 mg/dL and 200.059 mg/dL and 301.238 mg/dL and 218.455 mg/dL and 257.547 mg/dL
HF, plasma TG, group mean ([1]; APC 20 mg/kg): 239.1
HF, plasma TG (Fast, TG) [1, 2]: 2.336 mM and 3.011 mM and 3.66 mM and 3.53 mM and 2.414 mM and 3.1252 mM
HF, plasma TG (Fast, TG) [1, 3]: 2.1623 mM and 2.9976 mM and 2.258 mM and 3.4 mM and 2.466 mM and 2.907 mM
plasma NEFA ([1]; WT lean mice ip APC, individual mice): 0.3625 mM and 0.9375 mM (2×) and 0.4375 mM (2×) and 0.3875 mM and 0.3375 mM
Plasma HDL cholesterol (HDLC) in db/db mice [1, 10]: 102.090 mg/dL and 118.865 mg/dL and 74.315 mg/dL and 130.914 mg/dL and 101.419 mg/dL
Plasma LDL cholesterol (LDLC) in db/db mice [1, 10]: 136.268 mg/dL and 110.602 mg/dL and 104.635 mg/dL and 153.302 mg/dL and 128.968 mg/dL
Plasma total cholesterol (TC) in db/db mice [1, 10]: 321.58 mg/dL and 345.006 mg/dL and 255.56 mg/dL and 362.043 mg/dL and 310.931 mg/dL
plasma TG in db/db mice [1, 10]: 326.962 mg/dL and 300.088 mg/dL and 273.215 mg/dL and 309.046 mg/dL and 418.497 mg/dL
Plasma total cholesterol (TLC) in db/db mice, group mean ([1]; db/db mice, plasma, mean, N 5): 319 mg/dL
Plasma VLDL cholesterol in db/db mice, group mean ([1]; db/db mice, plasma, mean, sample size 5): 14.3
TC in liver_CRTC2KO, Mean Diff. VEH vs. drug ([1]; liver, CRTC2-KO mice, VEH minus drug): 4.338
TG in liver_CT2KO, Mean Diff. vs. VEH ([1]; liver, CRTC2-KO mice, drug minus VEH): 1.019 mg/g protein
TC in liver_CRTC2KO, mean ([1]; liver, CRTC2-KO mice, group mean (Mean 2), N=6): 47.01
TG in liver_CT2KO, mean ([1]; liver, CRTC2-KO mice, group mean, N=6): 16.67 mg/g protein
TG in liver_CT2KO ([1]; liver, CRTC2-KO mice, individual animals, Supp.fig.5c): 24.3792 mg/g protein and 12.893 mg/g protein and 18.4652 mg/g protein and 10.1068 mg/g protein and 21.2872 mg/g protein and 12.8898 mg/g protein
TC in liver_CT2KO (total cholesterol in the liver of CRTC2-KO) ([1]; liver, CRTC2-KO mice, individual animals, Supp.fig.5d): 58.4768 and 29.5309 and 45.7311 and 42.1461 and 61.1694 and 45.0332
TC in liver_WT, Mean Diff. VEH vs. drug ([1]; liver, WT mice, VEH minus drug): 14.77
TG in liver_WT, Mean Diff. vs. VEH ([1]; liver, WT mice, drug minus VEH): -10.82 mg/g protein
TC in liver_WT, mean ([1]; liver, WT mice, group mean (Mean 2), N=6): 45.59
TG in liver_WT, mean ([1]; liver, WT mice, group mean, N=6): 9.137 mg/g protein
TG in liver_WT ([1]; liver, WT mice, individual animals, Supp.fig.5c): 10.5445 mg/g protein and 8.1654 mg/g protein and 11.0077 mg/g protein and 10.5773 mg/g protein and 6.8582 mg/g protein and 7.67 mg/g protein
TC in liver_WT (total cholesterol in the liver) ([1]; liver, WT mice, individual animals, Supp.fig.5d): 40.0962 and 49.3508 and 44.4273 and 45.043 and 48.2093 and 46.4302
plasma and liver cholesterol, liver TG in Crtc2-KO mice ([1]; oral 20 mg/kg, 3 weeks): little effect

Reference: paper PMC8752738, “A propolis-derived small molecule ameliorates metabolic syndrome in obese mice by targeting the CREB/CRTC2 transcriptional complex” (Nature Communications, 2022)
